{"source": "patent US20260217701A1", "about": "“SELECTIVE BET INHIBITORS AND USES THEREOF” (Tay Therapeutics Limited, priority 2022, published 2026)", "test_system": "collagen-induced arthritis", "assay": "Collagen-induced arthritis (CIA) model: clinical scores and paw volume", "type": "in vivo, Lewis rats", "details": "for Percent Inhibition in clinical score (Mean ± SD) / Percent Inhibition in paw volume (Mean ± SD): CIA rats; for Overall Clinical Score: individual animals 1-8", "key": {"[1]": {"details": "Day 0, L paw, group 5 CIA + Compound A 1 mg/kg"}, "[2]": {"details": "Day 0, L paw, group 6 CIA + Compound A 3 mg/kg"}, "[3]": {"details": "Day 0, L paw, group 7 CIA + Compound A 10 mg/kg"}, "[4]": {"details": "Day 0, R paw, group 5 CIA + Compound A 1 mg/kg"}, "[5]": {"details": "Day 0, R paw, group 6 CIA + Compound A 3 mg/kg"}, "[6]": {"details": "Day 0, R paw, group 7 CIA + Compound A 10 mg/kg"}, "[7]": {"details": "Day 0, CIA + Compound A 1 mg/kg"}, "[8]": {"details": "Day 0, CIA + Compound A 3 mg/kg"}, "[9]": {"details": "Day 0, CIA + Compound A 10 mg/kg"}, "[10]": {"details": "Day 6, L paw, group 5 CIA + Compound A 1 mg/kg"}, "[11]": {"details": "Day 6, L paw, group 6 CIA + Compound A 3 mg/kg"}, "[12]": {"details": "Day 6, L paw, group 7 CIA + Compound A 10 mg/kg"}, "[13]": {"details": "Day 6, R paw, group 5 CIA + Compound A 1 mg/kg"}, "[14]": {"details": "Day 6, R paw, group 6 CIA + Compound A 3 mg/kg"}, "[15]": {"details": "Day 6, R paw, group 7 CIA + Compound A 10 mg/kg"}, "[16]": {"details": "Day 6, CIA + Compound A 1 mg/kg"}, "[17]": {"details": "Day 6, CIA + Compound A 3 mg/kg"}, "[18]": {"details": "Day 6, CIA + Compound A 10 mg/kg"}, "[19]": {"details": "Day 12, L paw, group 5 CIA + Compound A 1 mg/kg"}, "[20]": {"details": "Day 12, L paw, group 6 CIA + Compound A 3 mg/kg"}, "[21]": {"details": "Day 12, L paw, group 7 CIA + Compound A 10 mg/kg"}, "[22]": {"details": "Day 12, R paw, group 5 CIA + Compound A 1 mg/kg"}, "[23]": {"details": "Day 12, R paw, group 6 CIA + Compound A 3 mg/kg"}, "[24]": {"details": "Day 12, R paw, group 7 CIA + Compound A 10 mg/kg"}, "[25]": {"details": "Day 12, CIA + Compound A 1 mg/kg"}, "[26]": {"details": "Day 12, CIA + Compound A 3 mg/kg"}}, "note": "Where “and” joins values, the source holds several entries; their conditions need not be identical. Identical values can stand only once.", "data": [{"smiles": "Cn1cc(-c2ccccc2)c(-c2cn(C)c(=O)c3[nH]c(-c4cnn(C(F)(F)F)c4)cc23)cc1=O", "note": "[Compound A, 6-methyl-4-(1-methyl-2-oxo-5-phenyl-1,2-dihydropyridin-4-yl)-2-(1-(trifluoromethyl)-1H-pyrazol-4-yl)-1,6-dihydro-7H-pyrrolo[2,3-c]pyridin-7-one]", "values": [{"measurement": "Reduction in clinical score compared to CIA+placebo", "setting": "10 mg/kg PO QD, Day 21", "result": "> 70", "unit": "%"}, {"measurement": "Reduction in paw volume compared to CIA+placebo", "setting": "10 mg/kg PO QD, Day 21", "result": "> 70", "unit": "%"}, {"measurement": "Anti-inflammatory activity versus CIA placebo and CIA+10 mg/kg GSK620", "setting": "1, 3, and 10 mg/kg", "result": "superior (statistically)"}, {"measurement": "Percent Inhibition in clinical score (Mean ± SD)", "setting": "1 mg/kg", "result": "60 ± 21", "unit": "%"}, {"measurement": "Percent Inhibition in paw volume (Mean ± SD)", "setting": "1 mg/kg", "result": "58 ± 23", "unit": "%"}, {"measurement": "Percent Inhibition in clinical score (Mean ± SD)", "setting": "3 mg/kg", "result": "70 ± 8", "unit": "%"}, {"measurement": "Percent Inhibition in paw volume (Mean ± SD)", "setting": "3 mg/kg", "result": "75 ± 12", "unit": "%"}, {"measurement": "Average animal paw volume", "setting": "[1]", "result": 1.33, "unit": "mL"}, {"measurement": "Average animal paw volume percent change (%)", "setting": "[1]", "result": 0.00, "unit": "%"}, {"measurement": "Average animal paw volume", "setting": "[2]", "result": 1.32, "unit": "mL"}, {"measurement": "Average animal paw volume percent change (%)", "setting": "[2]", "result": 0.00, "unit": "%"}, {"measurement": "Average animal paw volume", "setting": "[3]", "result": 1.32, "unit": "mL"}, {"measurement": "Average animal paw volume percent change (%)", "setting": "[3]", "result": 0.00, "unit": "%"}, {"measurement": "Average animal paw volume", "setting": "[4]", "result": 1.33, "unit": "mL"}, {"measurement": "Average animal paw volume percent change (%)", "setting": "[4]", "result": 0.00, "unit": "%"}, {"measurement": "Average animal paw volume", "setting": "[5]", "result": 1.31, "unit": "mL"}, {"measurement": "Average animal paw volume percent change (%)", "setting": "[5]", "result": 0.00, "unit": "%"}, {"measurement": "Average animal paw volume", "setting": "[6]", "result": 1.31, "unit": "mL"}, {"measurement": "Average animal paw volume percent change (%)", "setting": "[6]", "result": 0.00, "unit": "%"}, {"measurement": "Average detailed clinical score, left forelimb", "setting": "[7]", "result": 0.00}, {"measurement": "Average detailed clinical score, left hind limb", "setting": "[7]", "result": 0.00}, {"measurement": "Average detailed clinical score, right forelimb", "setting": "[7]", "result": 0.00}, {"measurement": "Average detailed clinical score, right hind limb", "setting": "[7]", "result": 0.00}, {"measurement": "Average detailed clinical score, score", "setting": "[7]", "result": 0.00}, {"measurement": "Average overall clinical score", "setting": "[7]", "result": 0}, {"measurement": "Overall Clinical Score", "setting": "[7]", "result": 0}, {"measurement": "Average detailed clinical score, left forelimb", "setting": "[8]", "result": 0.00}, {"measurement": "Average detailed clinical score, left hind limb", "setting": "[8]", "result": 0.00}, {"measurement": "Average detailed clinical score, right forelimb", "setting": "[8]", "result": 0.00}, {"measurement": "Average detailed clinical score, right hind limb", "setting": "[8]", "result": 0.00}, {"measurement": "Average detailed clinical score, score", "setting": "[8]", "result": 0.00}, {"measurement": "Average overall clinical score", "setting": "[8]", "result": 0}, {"measurement": "Overall Clinical Score", "setting": "[8]", "result": 0}, {"measurement": "Average detailed clinical score, left forelimb", "setting": "[9]", "result": 0.00}, {"measurement": "Average detailed clinical score, left hind limb", "setting": "[9]", "result": 0.00}, {"measurement": "Average detailed clinical score, right forelimb", "setting": "[9]", "result": 0.00}, {"measurement": "Average detailed clinical score, right hind limb", "setting": "[9]", "result": 0.00}, {"measurement": "Average detailed clinical score, score", "setting": "[9]", "result": 0.00}, {"measurement": "Average overall clinical score", "setting": "[9]", "result": 0}, {"measurement": "Average animal paw volume", "setting": "[10]", "result": 1.35, "unit": "mL"}, {"measurement": "Average animal paw volume percent change (%)", "setting": "[10]", "result": 1.60, "unit": "%"}, {"measurement": "Average animal paw volume", "setting": "[11]", "result": 1.34, "unit": "mL"}, {"measurement": "Average animal paw volume percent change (%)", "setting": "[11]", "result": 1.44, "unit": "%"}, {"measurement": "Average animal paw volume", "setting": "[12]", "result": 1.34, "unit": "mL"}, {"measurement": "Average animal paw volume percent change (%)", "setting": "[12]", "result": 1.64, "unit": "%"}, {"measurement": "Average animal paw volume", "setting": "[13]", "result": 1.35, "unit": "mL"}, {"measurement": "Average animal paw volume percent change (%)", "setting": "[13]", "result": 1.41, "unit": "%"}, {"measurement": "Average animal paw volume", "setting": "[14]", "result": 1.34, "unit": "mL"}, {"measurement": "Average animal paw volume percent change (%)", "setting": "[14]", "result": 1.63, "unit": "%"}, {"measurement": "Average animal paw volume", "setting": "[15]", "result": 1.33, "unit": "mL"}, {"measurement": "Average animal paw volume percent change (%)", "setting": "[15]", "result": 1.59, "unit": "%"}, {"measurement": "Average detailed clinical score, left forelimb", "setting": "[16]", "result": 0.00}, {"measurement": "Average detailed clinical score, left hind limb", "setting": "[16]", "result": 0.00}, {"measurement": "Average detailed clinical score, right forelimb", "setting": "[16]", "result": 0.00}, {"measurement": "Average detailed clinical score, right hind limb", "setting": "[16]", "result": 0.00}, {"measurement": "Average detailed clinical score, score", "setting": "[16]", "result": 0.00}, {"measurement": "Average overall clinical score", "setting": "[16]", "result": 0}, {"measurement": "Overall Clinical Score", "setting": "[16]", "result": 0}, {"measurement": "Average detailed clinical score, left forelimb", "setting": "[17]", "result": 0.00}, {"measurement": "Average detailed clinical score, left hind limb", "setting": "[17]", "result": 0.00}, {"measurement": "Average detailed clinical score, right forelimb", "setting": "[17]", "result": 0.00}, {"measurement": "Average detailed clinical score, right hind limb", "setting": "[17]", "result": 0.00}, {"measurement": "Average detailed clinical score, score", "setting": "[17]", "result": 0.00}, {"measurement": "Average overall clinical score", "setting": "[17]", "result": 0}, {"measurement": "Overall Clinical Score", "setting": "[17]", "result": 0}, {"measurement": "Average detailed clinical score, left forelimb", "setting": "[18]", "result": 0.00}, {"measurement": "Average detailed clinical score, left hind limb", "setting": "[18]", "result": 0.00}, {"measurement": "Average detailed clinical score, right forelimb", "setting": "[18]", "result": 0.00}, {"measurement": "Average detailed clinical score, right hind limb", "setting": "[18]", "result": 0.00}, {"measurement": "Average detailed clinical score, score", "setting": "[18]", "result": 0.00}, {"measurement": "Average overall clinical score", "setting": "[18]", "result": 0}, {"measurement": "Average animal paw volume", "setting": "[19]", "result": 1.38, "unit": "mL"}, {"measurement": "Average animal paw volume percent change (%)", "setting": "[19]", "result": 4.24, "unit": "%"}, {"measurement": "Average animal paw volume", "setting": "[20]", "result": 1.37, "unit": "mL"}, {"measurement": "Average animal paw volume percent change (%)", "setting": "[20]", "result": 4.35, "unit": "%"}, {"measurement": "Average animal paw volume", "setting": "[21]", "result": 1.36, "unit": "mL"}, {"measurement": "Average animal paw volume percent change (%)", "setting": "[21]", "result": 3.32, "unit": "%"}, {"measurement": "Average animal paw volume", "setting": "[22]", "result": 1.42, "unit": "mL"}, {"measurement": "Average animal paw volume percent change (%)", "setting": "[22]", "result": 6.44, "unit": "%"}, {"measurement": "Average animal paw volume", "setting": "[23]", "result": 1.36, "unit": "mL"}, {"measurement": "Average animal paw volume percent change (%)", "setting": "[23]", "result": 3.50, "unit": "%"}, {"measurement": "Average animal paw volume", "setting": "[24]", "result": 1.37, "unit": "mL"}, {"measurement": "Average animal paw volume percent change (%)", "setting": "[24]", "result": 4.40, "unit": "%"}, {"measurement": "Average detailed clinical score, left forelimb", "setting": "[25]", "result": 0.00}, {"measurement": "Average detailed clinical score, left hind limb", "setting": "[25]", "result": 0.13}, {"measurement": "Average detailed clinical score, right forelimb", "setting": "[25]", "result": 0.25}, {"measurement": "Average detailed clinical score, right hind limb", "setting": "[25]", "result": 0.00}, {"measurement": "Average detailed clinical score, score", "setting": "[25]", "result": 0.38}, {"measurement": "Average overall clinical score", "setting": "[25]", "result": 0}, {"measurement": "Overall Clinical Score", "setting": "Day 12, CIA + Compound A 1 mg/kg, 1 mg/kg", "result": "0 (7×) and 1"}, {"measurement": "Average detailed clinical score, left forelimb", "setting": "[26]", "result": 0.00}, {"measurement": "Average detailed clinical score, left hind limb", "setting": "[26]", "result": 0.25}, {"measurement": "Average detailed clinical score, right forelimb", "setting": "[26]", "result": 0.00}, {"measurement": "Average detailed clinical score, right hind limb", "setting": "[26]", "result": 0.25}, {"measurement": "Average detailed clinical score, score", "setting": "[26]", "result": 0.50}, {"measurement": "Average overall clinical score", "setting": "[26]", "result": 0}, {"measurement": "Overall Clinical Score", "setting": "Day 12, CIA + Compound A 3 mg/kg, 3 mg/kg", "result": 0}]}]}
